Consider one molecule from patent US12011474B2, “Composition comprising a mixture of molecules extracted from Chrysanthellum indicum, Cynara scolymus and Lycium barbarum and use to act on carbohydrate and/or fat metabolism” (VALBIOTIS, priority 2015, dated 2024).

This assay concerns db/db mice. Kind of assay: Fasting blood glucose in db/db mice. The format is in vivo. To be noted: same db/db model, separate experiment with younger mice, control group 414 mg/dL.

Description: The experiments were done on db/db mice.
The experimental time was 9 weeks with a “Run-in” of 1 week followed by 8 weeks of supplementation with the plant extracts and a composition X. The male mice were 10 weeks old at the beginning of treatment.
The experimental assessments in particular pertained to: • The measurement of the serous lipids (total cholesterol, LDL cholesterol, triglycerides); • The evolution of the blood glucose during an oral sensitivity test to insulin. This test consisted of an intraperitoneal injection of insulin (2 U/kg) on an empty stomach. The evolution of the blood glucose in response to the insulin injection was measured in the tail by biopsy just before the injection (t0), then after 30, 60, 90 and 120 minutes. The area under the curve (AUC) was calculated. A decrease in the AUC reflects a better response to the insulin injection, and therefore improved insulin sensitivity. Conversely, an increase in the AUC reflects a lower quality sensitivity to the insulin, and therefore insulin resistance; • The measurement of the fasting blood glucose.
The evaluations presented were done just before the supplementation (t=0) and at the end of supplementation (t=8 weeks).

Turning to `CN(C)C(=N)N=C(N)N` [metformin], the Fasting blood glucose worked out at 463 mg/d L and the “Increase of fasting blood glucose versus control group” value is recorded as 11%.
